Experimental data: ChEMBL document CHEMBL6120941, “Discovery of SIRT1-Activating Hydrogen Sulfide Donating Derivatives for Efficient Resistant of Myocardial Ischemic Injury” (J Med Chem, 2024)
The source made the active and inactive calls. The calls are words filed in the database; no cut-off is given here.

Experiments:
H9c2 [1] = experiment: Cardioprotective activity against CoCl2-induced cellular hypoxia injury in rat H9c2 cells assessed as reduction in apoptosis at 5 to 10 uM incubated for 24 hrs by flow cytometry; format: functional, cell-based; conditions: dose 5-10 µM
H9c2 [2] = experiment: Cardioprotective activity against CoCl2-induced cellular hypoxia injury in rat H9c2 cells assessed as reduction in hypoxia-induced apoptosis at 5 to 10 uM incubated for 24 hrs by Hoechst 33258 nuclear staining based analysis; format: functional, cell-based; conditions: dose 5-10 µM
H9c2 [3] = experiment: Antioxidant activity against CoCl2-induced cellular hypoxia injury in rat H9c2 cells assessed as decrease in hypoxia-induced CK level at 5 to 10 uM incubated for 24 hrs; format: functional, cell-based; conditions: dose 5-10 µM
H9c2 [4] = experiment: Cardioprotective activity against CoCl2-induced cellular hypoxia injury in rat H9c2 cells assessed as improvement in nuclear shrinkage at 5 to 10 uM incubated for 24 hrs by Hoechst 33258 nuclear staining based analysis; format: functional, cell-based; conditions: dose 5-10 µM
[5] = Toxicity in myocardial ischemia Sprague-Dawley rat model assessed as change in body weight at 10 to 30 mg/kg, IG treated for 7 days consecutively followed by ISO administration daily for 2 days consecutively; format: organism-based; conditions: in vivo, po, 216 h, dose 10-30 mg/kg, time 9 day
[6] = Induction of H2S […] activity in presence of GSSH; format: functional
Rattus norvegicus = experiment: Cardioprotective activity in myocardial ischemia Sprague-Dawley rat model assessed as improvement in cell volume size at 10 to 30 mg/kg, IG treated for 7 days consecutively followed by ISO administration daily for 2 days consecutively by H and E/Masson staining based analysis; format: functional, organism-based; conditions: dose 10-30 mg/kg, time 9.0 day

For C=CCSSCCC(=O)O[C@H]1CC[C@]2(C)[C@H]3C[C@@H](O)[C@@H]4[C@@H]([C@]5(C)CC[C@@H](C(C)(C)O)O5)CC[C@@]4(C)[C@]3(C)CC[C@H]2C1(C)C, the Activity (H9c2 [1]) was “Active”, the Activity (H9c2 [2]) was “Active” and the Activity (H9c2 [3]) was “Active”. For the same molecule, the Activity (H9c2 [4]) was “Active”, the Activity [5] was “Non-toxic” and the Activity [6] was 18.6%. For the same molecule, the Activity (Rattus norvegicus) was “Active”.
